Test results taken from ChEMBL document CHEMBL5537171, “Design, Synthesis, and Biological Evaluation of Potent and Selective PROTAC Degraders of Oncogenic KRASG12D” (J Med Chem, 2024).
pIC50: −log10 of the molar value. Values belong to the molecule of their own block, whether it stands above or below them. Calls of active or inactive are those of the source. The calls are words filed in the database; no cut-off is given here.

Legend:
[1] = target: von Hippel-Lindau disease tumor suppressor/GTPase KRas (Homo sapiens, UniProt P01116+P40337, G12D); experiment: PROTAC activity at VHL/KRAS G12D mutant in human ASPC1 cells assessed as induction of protein degradation incubated for 24 hrs by Western blot analysis; format: cell-based
[2] = test system: von Hippel-Lindau disease tumor suppressor/GTPase KRas (Homo sapiens), P01116+P40337 [G12D]; experiment: PROTAC activity at VHL/KRAS G12D mutant in human ASPC1 cells assessed as induction of protein degradation incubated for 24 hrs by Western blot analysis relative to control; format: cell-based
[3] = Competitive binding affinity to His-tagged VHL/Elongin C/Elongin B (unknown origin) by FP assay; set-up: species or system Homo sapiens
[4] = Competitive binding affinity to His-tagged VHL/Elongin C/Elongin B/KRAS G12D mutant (unknown origin) by FP assay; set-up: species or system Homo sapiens
[5] = Cooperativity factor alpha, ratio of IC50 for His-tagged VHL/Elongin C/Elongin B (unknown origin) to IC50 for His-tagged VHL/Elongin C/Elongin B/KRAS (unknown origin)
[6] = target: GTPase KRas (Homo sapiens, UniProt P01116, G12D); experiment: Inhibition of KRAS G12D mutant (unknown origin) preincubated for 15 mins followed by SOS1/EDA-GTP-DY-647P1 addition measured after 30 mins by HTRF assay
[7] = Drug uptake in human ASPC1 cells at 10 uM incubated for 1 hr by MS analysis; format: ADME, cell-based; conditions: aspc1, 1 h
[8] = organism: Homo sapiens; experiment: Binding affinity to His-tagged VHL/Elongin C/Elongin B/GST-tagged KRAS G12D mutant (unknown origin) incubated for 1 hr by HTRF assay
[9] = test system: Panc 04.03; experiment: Antiproliferative activity against human Panc 04.03 cells harboring KRAS G12D mutant assessed as inhibition of cell viability incubated for 5 days by Cell Titer Glo assay; format: functional, cell-based; conditions: Panc 04.03, 120 h
[10] = test system: NCI-H1975; experiment: Antiproliferative activity against human NCI-H1975 cells harboring wild-type KRAS assessed as inhibition of cell viability incubated for 5 days by Cell Titer Glo assay; format: functional, cell-based; conditions: NCI-H1975, 120 h
[11] = test system: ASPC1; experiment: Antiproliferative activity against human ASPC1 cells harboring KRAS G12D mutant assessed as inhibition of cell viability incubated for 5 days by Cell Titer Glo assay; format: functional, cell-based; conditions: ASPC1, 120 h
[12] = test system: von Hippel-Lindau disease tumor suppressor/GTPase KRas (Homo sapiens), P01116+P40337 [G12D]; experiment: PROTAC activity at VHL/KRAS G12D mutant in human ASPC1 cells assessed as induction of protein degradation at 1 to 10 uM incubated for 7 hrs by Western blot analysis; format: cell-based; conditions: dose 1-10 µM
[13] = test system: AGS; experiment: Antiproliferative activity against human AGS cells harboring KRAS G12D mutant assessed as inhibition of cell viability incubated for 5 days by Cell Titer Glo assay; format: functional, cell-based; conditions: 120 h
[14] = test system: SNU1; experiment: Antiproliferative activity against human SNU1 cells harboring KRAS G12D mutant assessed as inhibition of cell viability incubated for 5 days by Cell Titer Glo assay; format: functional, cell-based; conditions: SNU1, 120 h
[15] = test system: HPAF-II; experiment: Antiproliferative activity against human HPAF-II cells harboring KRAS G12D mutant assessed as inhibition of cell viability incubated for 5 days by Cell Titer Glo assay; format: functional, cell-based; conditions: 120 h
[16] = test system: NCI-H358; experiment: Antiproliferative activity against human NCI-H358 cells harboring KRAS G12C mutant assessed as inhibition of cell viability incubated for 5 days by Cell Titer Glo assay; format: functional, cell-based; conditions: NCI-H358, 120 h
[17] = test system: ASPC1; experiment: Antiproliferative activity against human ASPC1 cells assessed as inhibition of cell viability incubated for 6 hrs followed by compound washout measured after 114 hrs by Cell Titer Glo assay; format: functional, cell-based
[18] = test system: ASPC1; experiment: Antiproliferative activity against human ASPC1 cells assessed as inhibition of cell viability incubated for 120 hrs of continuous treatment by Cell Titer Glo assay; format: functional, cell-based; conditions: ASPC1, 120 h
[19] = test system: von Hippel-Lindau disease tumor suppressor/GTPase KRas (Homo sapiens), P01116+P40337 [G12D]; experiment: PROTAC activity at VHL/KRAS G12D mutant in human ASPC1 cells assessed as decrease in pERK level at 1 uM incubated for 6 hrs followed by compound washout measured for <4 hrs by Western blot analysis; format: cell-based
[20] = Selectivity index, ratio of IC50 for human ASPC1 cells assessed as inhibition of cell viability incubated for 6 hrs followed by compound washout measured after 114 hrs by Cell Titer Glo assay to IC50 for human ASPC1 cells assessed as inhibition of cell viability incubated for 120 hrs of continuous treatment by Cell Titer Glo assay; format: functional

Chain of von Hippel-Lindau disease tumor suppressor/GTPase KRas (P01116 whole entry G12D, stated change not applied): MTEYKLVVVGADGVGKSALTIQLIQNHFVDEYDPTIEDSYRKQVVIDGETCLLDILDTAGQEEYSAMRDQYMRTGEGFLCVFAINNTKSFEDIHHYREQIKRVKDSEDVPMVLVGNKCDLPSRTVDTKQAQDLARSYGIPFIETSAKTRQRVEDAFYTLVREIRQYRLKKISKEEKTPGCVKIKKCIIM
Chain of von Hippel-Lindau disease tumor suppressor/GTPase KRas (P40337 whole entry, stated change not applied): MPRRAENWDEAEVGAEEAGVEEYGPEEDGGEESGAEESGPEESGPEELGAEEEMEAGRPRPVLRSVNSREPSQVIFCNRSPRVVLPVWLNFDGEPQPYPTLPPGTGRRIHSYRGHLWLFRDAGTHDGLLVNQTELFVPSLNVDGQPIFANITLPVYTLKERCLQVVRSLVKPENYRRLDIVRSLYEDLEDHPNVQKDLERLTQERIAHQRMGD
Chain of von Hippel-Lindau disease tumor suppressor/GTPase KRas (Homo sapiens), P01116+P40337 [G12D] (P01116 whole entry G12D): as the sequence (P01116 whole entry G12D, stated change not applied) above
Chain of von Hippel-Lindau disease tumor suppressor/GTPase KRas (Homo sapiens), P01116+P40337 [G12D] (P40337 whole entry partner): as the sequence (P40337 whole entry, stated change not applied) above
Chain of GTPase KRas (P01116 whole entry G12D): as the sequence (P01116 whole entry G12D, stated change not applied) above

SMILES: CCc1cccc2cc(O)cc(-c3ncc4c(N5C[C@H]6CC[C@@H](C5)N6)nc(OC[C@@H]5CCCN5CCCCCCCC(=O)N[C@H](C(=O)N5C[C@H](O)C[C@H]5C(=O)N[C@@H](C)c5ccc(-c6scnc6C)cc5)C(C)(C)C)nc4c3F)c12
- DC50 ([1]; read-out: DC50): 2.26 µM
- Emax [2]: 82.4%

SMILES: CCc1cccc2cc(O)cc(-c3ncc4c(N5C[C@H]6CC[C@@H](C5)N6)nc(OC[C@@H]5CCCN5CC5CCN(CCC(=O)N[C@H](C(=O)N6C[C@H](O)C[C@H]6C(=O)N[C@@H](C)c6ccc(-c7scnc7C)cc6)C(C)(C)C)CC5)nc4c3F)c12
- pIC50 [3]: 5.67
- pIC50 [4]: 7.09
- Ratio IC50 [5]: 26.9
- Emax [2]: 29.8%

SMILES: CCc1cccc2cc(O)cc(-c3ncc4c(N5C[C@H]6CC[C@@H](C5)N6)nc(OC[C@@H]5CCCN5CCCCCC(=O)N[C@H](C(=O)N5C[C@H](O)C[C@H]5C(=O)N[C@@H](C)c5ccc(-c6scnc6C)cc5)C(C)(C)C)nc4c3F)c12
- DC50 ([1]; read-out: DC50): 1.2 µM
- Emax [2]: 89.7%

- pIC50 [6]: 8.24
SMILES: CCc1cccc2cc(O)cc(-c3ncc4c(N5C[C@H]6CC[C@@H](C5)N6)nc(OC[C@@H]5CCCN5C)nc4c3F)c12

SMILES: CCc1cccc2cc(O)cc(-c3ncc4c(N5C[C@H]6CC[C@@H](C5)N6)nc(OC[C@@H]5CCCN5CCOCCC(=O)N[C@H](C(=O)N5C[C@H](O)C[C@H]5C(=O)N[C@@H](C)c5ccc(-c6scnc6C)cc5)C(C)(C)C)nc4c3F)c12
- DC50 ([1]; read-out: DC50): 1.82 µM
- Emax [2]: 89.5%

SMILES: CCc1cccc2cc(O)cc(-c3ncc4c(N5C[C@H]6CC[C@@H](C5)N6)nc(OC[C@@H]5CCCN5CCC(=O)NCCC(=O)N[C@H](C(=O)N5C[C@H](O)C[C@H]5C(=O)N[C@@H](C)c5ccc(-c6scnc6C)cc5)C(C)(C)C)nc4c3F)c12
- Drug uptake [7]: Active
- pIC50 [3]: 5.64
- pIC50 [4]: 7.53
- Ratio IC50 [5]: 76.2
- DC50 ([1]; read-out: DC50): 3.81 µM
- Emax [2]: 83.6%

SMILES: CCc1cccc2cc(O)cc(-c3ncc4c(N5C[C@H]6CC[C@@H](C5)N6)nc(OC[C@@H]5CCCN5CCCCCCCCC(=O)N[C@H](C(=O)N5C[C@H](O)C[C@H]5C(=O)N[C@@H](C)c5ccc(-c6scnc6C)cc5)C(C)(C)C)nc4c3F)c12
- DC50 ([1]; read-out: DC50): 0.165 µM
- Emax [2]: 89.3%

SMILES: CCc1cccc2cc(O)cc(-c3ncc4c(N5C[C@H]6CC[C@@H](C5)N6)nc(OC[C@@H]5CCCN5CCCOCCC(=O)N[C@H](C(=O)N5C[C@H](O)C[C@H]5C(=O)N[C@@H](C)c5ccc(-c6scnc6C)cc5)C(C)(C)C)nc4c3F)c12
- pIC50 [3]: 6.04
- pIC50 [4]: 7.60
- Ratio IC50 [5]: 35.7
- DC50 ([1]; read-out: DC50): 0.132 µM
- Emax [2]: 98.1%

SMILES: CCc1c(F)ccc2cc(O)cc(-c3ncc4c(N5C[C@H]6CC[C@@H](C5)N6)nc(OC[C@@H]5C[C@@H](F)CN5CCCCOCC(=O)N[C@H](C(=O)N5C[C@H](O)C[C@H]5C(=O)N[C@@H](C)c5ccc(-c6scnc6C)cc5)C(C)(C)C)nc4c3F)c12
- DC50 ([1]; read-out: DC50): 0.0872 µM
- Emax [2]: 96.2%

SMILES: CCc1cccc2cc(O)cc(-c3ncc4c(N5C[C@H]6CC[C@@H](C5)N6)nc(OC[C@@H]5CCCN5CCCCCCC(=O)N[C@H](C(=O)N5C[C@H](O)C[C@H]5C(=O)N[C@@H](C)c5ccc(-c6scnc6C)cc5)C(C)(C)C)nc4c3F)c12
- DC50 ([1]; read-out: DC50): 0.572 µM
- Emax [2]: 98.9%

SMILES: CCc1cccc2cc(O)cc(-c3ncc4c(N5C[C@H]6CC[C@@H](C5)N6)nc(OC[C@@H]5CCCN5CCCCOCC(=O)N[C@H](C(=O)N5C[C@H](O)C[C@H]5C(=O)N[C@@H](C)c5ccc(-c6scnc6C)cc5)C(C)(C)C)nc4c3F)c12
- Drug uptake [7]: Active
- pIC50 [3]: 6.39
- pIC50 [4]: 7.72
- Ratio IC50 [5]: 21.5
- DC50 ([1]; read-out: DC50): 0.164 µM
- Emax [2]: 99.4%

SMILES: CCc1c(F)ccc2cc(O)cc(-c3ncc4c(N5C[C@H]6CC[C@@H](C5)N6)nc(OC[C@@H]5CCCN5CCCCOCC(=O)N[C@H](C(=O)N5C[C@@H](O)C[C@H]5C(=O)N[C@@H](C)c5ccc(-c6scnc6C)cc5)C(C)(C)C)nc4c3F)c12
- Activity [8]: inactive
- pIC50 [9]: 5.47
- pIC50 [10]: < 5.00
- pIC50 [11]: < 5.70
- Activity [12]: inactive
- pIC50 [13]: 6.02
- pIC50 [14]: 6.03
- pIC50 [15]: < 5.40
- pIC50 [16]: < 5.00

SMILES: CCc1cccc2cc(O)cc(-c3ncc4c(N5C[C@H]6CC[C@@H](C5)N6)nc(OC[C@@H]5CCCN5C[C@H]5CC[C@H](C(=O)N[C@H](C(=O)N6C[C@H](O)C[C@H]6C(=O)N[C@@H](C)c6ccc(-c7scnc7C)cc6)C(C)(C)C)CC5)nc4c3F)c12
- DC50 [1]: Not Active
- Emax [2]: inactive

SMILES: CCc1c(F)ccc2cc(O)cc(-c3ncc4c(N5C[C@H]6CC[C@@H](C5)N6)nc(OC[C@@H]5CCCN5C)nc4c3F)c12
- pIC50 [17]: 5.53
- pIC50 [18]: 6.86
- pIC50 [9]: 6.95
- pIC50 [10]: < 5.00
- Activity [19]: Active
- pIC50 [11]: 6.81
- Ratio IC50 [20]: 21.14
- pIC50 [13]: 7.70
- pIC50 [14]: 7.53
- pIC50 [15]: 6.78
- pIC50 [16]: < 5.00

SMILES: CCc1cccc2cc(O)cc(-c3ncc4c(N5C[C@H]6CC[C@@H](C5)N6)nc(OC[C@@H]5CCCN5CCCCC(=O)N[C@H](C(=O)N5C[C@H](O)C[C@H]5C(=O)N[C@@H](C)c5ccc(-c6scnc6C)cc5)C(C)(C)C)nc4c3F)c12
- DC50 ([1]; read-out: DC50): 1.01 µM
- Emax [2]: 96.7%

SMILES: CCc1cccc2cc(O)cc(-c3ncc4c(N5C[C@H]6CC[C@@H](C5)N6)nc(OC[C@@H]5CCCN5C5CCC6(CC5)CCN(CC(=O)N[C@H](C(=O)N5C[C@H](O)C[C@H]5C(=O)N[C@@H](C)c5ccc(-c7scnc7C)cc5)C(C)(C)C)CC6)nc4c3F)c12
- Emax [2]: 53.9%

SMILES: CCc1cccc2cc(O)cc(-c3ncc4c(N5C[C@H]6CC[C@@H](C5)N6)nc(OC[C@@H]5CCCN5CCCCOCCC(=O)N[C@H](C(=O)N5C[C@H](O)C[C@H]5C(=O)N[C@@H](C)c5ccc(-c6scnc6C)cc5)C(C)(C)C)nc4c3F)c12
- DC50 ([1]; read-out: DC50): 1.31 µM
- Emax [2]: 90.2%

- pIC50 [3]: 6.46
- pIC50 [4]: 6.42
- Ratio IC50 [5]: 0.9
SMILES: CC(=O)N[C@H](C(=O)N1C[C@H](O)C[C@H]1C(=O)N[C@@H](C)c1ccc(-c2scnc2C)cc1)C(C)(C)C

SMILES: C#Cc1c(F)ccc2cc(O)cc(-c3ncc4c(N5C[C@H]6CC[C@@H](C5)N6)nc(OC[C@@H]5CCCN5CCCCOCC(=O)N[C@H](C(=O)N5C[C@H](O)C[C@H]5C(=O)N[C@@H](C)c5ccc(-c6scnc6C)cc5)C(C)(C)C)nc4c3F)c12
- DC50 ([1]; read-out: DC50): 0.116 µM
- Emax [2]: 99.5%

SMILES: CCc1cccc2cc(O)cc(-c3ncc4c(N5C[C@H]6CC[C@@H](C5)N6)nc(OC[C@@H]5CCCN5C5CC6(CCN(CC(=O)N[C@H](C(=O)N7C[C@H](O)C[C@H]7C(=O)N[C@@H](C)c7ccc(-c8scnc8C)cc7)C(C)(C)C)CC6)C5)nc4c3F)c12
- DC50 ([1]; read-out: DC50): 0.134 µM
- Emax [2]: 85.1%
